Experimental data from patent publication US12486267B2, “Imidazo[1,2-A]pyridine and [1,2,4]triazolo[1,5-A]pyridine derivatives as TLR9 inhibitors for the treatment of fibrosis” (BRISTOL-MYERS SQUIBB COMPANY, priority 2020, dated 2025).

Tests used:
Assay type in all cases: cell-based
[1] = target: T1, human TLR8 (Homo sapiens, UniProt Q9NR97); test: TLR8 inhibition reporter assay (HEK-Blue cells, SEAP reporter); conditions: HEK-Blue cells overexpressing human TLR8; stimulated with R848 15.9 μM; 22 hour incubation; SEAP readout
T1 sequence (Q9NR97 27-1041): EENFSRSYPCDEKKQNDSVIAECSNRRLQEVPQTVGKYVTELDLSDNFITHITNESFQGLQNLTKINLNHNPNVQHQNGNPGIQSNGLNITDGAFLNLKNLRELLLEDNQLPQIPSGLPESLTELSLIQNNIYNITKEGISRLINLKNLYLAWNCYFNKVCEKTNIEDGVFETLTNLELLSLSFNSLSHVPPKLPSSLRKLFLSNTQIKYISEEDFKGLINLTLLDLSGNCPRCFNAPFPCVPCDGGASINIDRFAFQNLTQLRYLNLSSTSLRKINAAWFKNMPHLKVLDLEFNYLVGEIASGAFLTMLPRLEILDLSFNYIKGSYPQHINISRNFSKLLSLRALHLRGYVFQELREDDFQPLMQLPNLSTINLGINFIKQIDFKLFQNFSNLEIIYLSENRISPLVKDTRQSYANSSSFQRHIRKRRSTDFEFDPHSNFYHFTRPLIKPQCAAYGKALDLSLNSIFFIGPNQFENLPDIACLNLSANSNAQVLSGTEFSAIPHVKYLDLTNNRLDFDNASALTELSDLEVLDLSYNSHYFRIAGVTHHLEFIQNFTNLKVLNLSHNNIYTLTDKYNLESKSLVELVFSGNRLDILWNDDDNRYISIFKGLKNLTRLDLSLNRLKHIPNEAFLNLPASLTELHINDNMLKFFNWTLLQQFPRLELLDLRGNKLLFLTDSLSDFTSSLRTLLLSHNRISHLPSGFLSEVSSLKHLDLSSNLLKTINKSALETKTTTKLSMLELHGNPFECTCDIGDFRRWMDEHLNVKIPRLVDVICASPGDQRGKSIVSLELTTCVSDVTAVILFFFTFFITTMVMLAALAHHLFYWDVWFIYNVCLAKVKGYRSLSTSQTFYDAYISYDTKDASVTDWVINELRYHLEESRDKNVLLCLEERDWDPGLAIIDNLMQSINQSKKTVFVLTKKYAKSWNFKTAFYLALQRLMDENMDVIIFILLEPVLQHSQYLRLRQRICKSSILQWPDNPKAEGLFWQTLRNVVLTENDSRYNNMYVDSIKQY
Description: (§1) TLR7/8/9 Inhibition Reporter Assays
(§2) HEK-Blue™-cells (Invivogen) overexpressing human TLR7, TLR8 or TLR9 receptors were used for screening inhibitors of these receptors using an inducible SEAP (secreted embryonic alkaline phosphatase) reporter gene under the control of the […] minimal promoter fused to five NF-κB and AP-1-binding sites. Briefly, cells are seeded into Greiner 384 well plates (15000 cells per well for TLR7, 20,000 for TLR8 and 25,000 for TLR9) and then treated with test compounds in DMSO to yield a final dose response concentration range of 0.05 nM-50 μM. After a 30 minute compound pre-treatment at room temperature, the cells are then stimulated with a TLR7 ligand (gardiquimod at a final concentration of 7.5 μM), TLR8 ligand (R848 at a final concentration of 15.9 μM) or TLR9 ligand (ODN2006 at a final concentration of 5 nM) to activate NF-κB and AP-1 which induce the production of SEAP. After a 22 hour incubation at 37° C., 5% CO2, SEAP levels are determined with the addition of HEK-Blue™ Detection reagent (Invivogen), a cell culture medium that allows for detection of SEAP, according to manufacturer's specifications. The percent inhibition is determined as the % reduction in the HEK-Blue signal present in wells treated with agonist plus DMSO alone compared to wells treated with a known inhibitor.

[2] = target: T2, human TLR9 (Homo sapiens, UniProt Q9NR96); test: TLR9 inhibition reporter assay (HEK-Blue cells, SEAP reporter); conditions: HEK-Blue cells overexpressing human TLR9; stimulated with ODN2006 5 nM; 22 hour incubation; SEAP readout
T2 sequence (Q9NR96 26-1032): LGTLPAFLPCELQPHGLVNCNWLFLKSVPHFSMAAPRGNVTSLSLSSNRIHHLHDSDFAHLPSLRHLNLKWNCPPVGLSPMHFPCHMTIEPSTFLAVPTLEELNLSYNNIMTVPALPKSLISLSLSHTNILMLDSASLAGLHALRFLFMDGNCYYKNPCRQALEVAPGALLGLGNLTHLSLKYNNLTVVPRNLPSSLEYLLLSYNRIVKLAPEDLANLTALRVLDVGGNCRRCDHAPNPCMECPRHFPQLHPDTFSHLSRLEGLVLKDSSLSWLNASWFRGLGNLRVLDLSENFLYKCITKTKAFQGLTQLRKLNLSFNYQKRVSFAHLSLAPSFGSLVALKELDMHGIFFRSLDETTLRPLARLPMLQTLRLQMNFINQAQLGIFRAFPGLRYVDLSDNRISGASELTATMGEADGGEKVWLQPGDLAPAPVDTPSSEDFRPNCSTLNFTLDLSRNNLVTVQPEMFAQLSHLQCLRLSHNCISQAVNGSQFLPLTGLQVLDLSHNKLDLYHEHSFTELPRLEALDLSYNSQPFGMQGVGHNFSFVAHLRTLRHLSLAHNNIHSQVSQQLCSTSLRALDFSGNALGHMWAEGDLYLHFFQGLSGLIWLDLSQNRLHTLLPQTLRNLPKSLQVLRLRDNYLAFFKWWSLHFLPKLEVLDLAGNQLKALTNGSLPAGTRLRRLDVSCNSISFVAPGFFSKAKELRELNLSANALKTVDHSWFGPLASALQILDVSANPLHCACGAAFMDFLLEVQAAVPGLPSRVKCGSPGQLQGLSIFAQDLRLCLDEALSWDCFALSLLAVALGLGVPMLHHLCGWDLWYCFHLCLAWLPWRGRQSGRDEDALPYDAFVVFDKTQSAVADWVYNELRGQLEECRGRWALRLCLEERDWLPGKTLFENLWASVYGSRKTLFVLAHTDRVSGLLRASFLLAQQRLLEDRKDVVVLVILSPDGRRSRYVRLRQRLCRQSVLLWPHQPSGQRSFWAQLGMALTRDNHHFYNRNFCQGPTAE
Method in brief: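 HEK-Blue cells with NF-κB/AP-1-driven SEAP pre-treated 30 min with compound (0.05 nM–50 μM), then stimulated with gardiquimod 7.5 μM (TLR7), R848 15.9 μM (TLR8) or ODN2006 5 nM (TLR9). SEAP detected after 22 h at 37 °C; percent inhibition relative to agonist-plus-DMSO and known-inhibitor wells.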

[3] = target: T3, human TLR7 (Homo sapiens, UniProt Q9NYK1); test: TLR7 inhibition reporter assay (HEK-Blue cells, SEAP reporter); conditions: HEK-Blue cells overexpressing human TLR7; stimulated with gardiquimod 7.5 μM; 22 hour incubation; SEAP readout
T3 sequence (Q9NYK1 27-1049): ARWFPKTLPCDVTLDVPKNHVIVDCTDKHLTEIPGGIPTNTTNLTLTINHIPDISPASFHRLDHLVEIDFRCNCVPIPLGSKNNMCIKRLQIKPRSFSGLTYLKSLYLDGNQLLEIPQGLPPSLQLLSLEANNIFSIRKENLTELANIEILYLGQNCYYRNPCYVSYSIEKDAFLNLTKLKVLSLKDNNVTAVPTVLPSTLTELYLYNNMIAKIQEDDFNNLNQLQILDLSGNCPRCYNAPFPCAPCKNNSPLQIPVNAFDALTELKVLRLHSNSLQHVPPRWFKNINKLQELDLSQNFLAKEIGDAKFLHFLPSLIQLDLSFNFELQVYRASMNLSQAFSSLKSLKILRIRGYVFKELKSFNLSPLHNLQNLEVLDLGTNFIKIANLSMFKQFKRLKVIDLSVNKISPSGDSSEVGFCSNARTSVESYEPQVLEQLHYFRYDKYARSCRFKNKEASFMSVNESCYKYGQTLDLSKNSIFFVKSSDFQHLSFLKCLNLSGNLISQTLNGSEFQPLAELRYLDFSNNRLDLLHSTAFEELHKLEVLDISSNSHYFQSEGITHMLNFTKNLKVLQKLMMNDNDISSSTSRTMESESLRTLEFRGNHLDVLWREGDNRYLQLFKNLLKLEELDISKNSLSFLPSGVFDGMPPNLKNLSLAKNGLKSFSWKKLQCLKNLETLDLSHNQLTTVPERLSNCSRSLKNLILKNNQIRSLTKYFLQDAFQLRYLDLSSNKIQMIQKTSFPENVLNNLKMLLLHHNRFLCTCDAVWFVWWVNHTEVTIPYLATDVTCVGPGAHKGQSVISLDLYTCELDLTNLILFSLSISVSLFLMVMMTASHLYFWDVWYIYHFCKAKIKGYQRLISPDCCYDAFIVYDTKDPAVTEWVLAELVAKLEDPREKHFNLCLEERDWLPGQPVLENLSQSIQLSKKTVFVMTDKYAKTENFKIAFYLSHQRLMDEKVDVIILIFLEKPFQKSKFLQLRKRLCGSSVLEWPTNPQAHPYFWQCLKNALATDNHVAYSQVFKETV
Description: as §1, §2

Structure (SMILES)	IC50 [1] [nM]	IC50 [2] [nM]	IC50 [3] [nM]
COc1ccc(-c2cn3c(n2)CCC(C2CCN(C4CCN(CC5CC5)CC4)CC2)C3)cc1OC (racemic) [Example 55, 6-(1′-(cyclopropylmethyl)-[1,4′-bipiperidin]-4-yl)-2-(3,4-dimethoxyphenyl)-5,6,7,8-tetrahydroimidazo[1,2-a]pyridine]	> 50000	38	1600
COc1ccc(-c2cn3c(n2)CC(C2CCN(C4CCN(C(C)C)CC4)CC2)CC3)cc1OC (racemic) [Example 58, 2-(3,4-dimethoxyphenyl)-7-(1′-isopropyl-[1,4′-bipiperidin]-4-yl)-5,6,7,8-tetrahydroimidazo[1,2-a]pyridine]	15000	60	13000
COc1ccc(-c2cn3c(n2)CC(C2CCN(C4CCN(CC(C)C)CC4)CC2)CC3)cc1OC (racemic) [Example 59, 2-(3,4-dimethoxyphenyl)-7-(1′-isobutyl-[1,4′-bipiperidin]-4-yl)-5,6,7,8-tetrahydroimidazo[1,2-a]pyridine]	> 50000	205	7700
COc1ccc(-c2cn3cc(C4CCN(C5CC6CCC(C5)N6CC(C)C)CC4)cc(C)c3n2)cc1OC (single isomer, unassigned) [Example 18, 2-(3,4-dimethoxyphenyl)-6-(1-(8-isobutyl-8-azabicyclo[3.2.1]octan-3-yl)piperidin-4-yl)-8-methylimidazo[1,2-a]pyridine]	> 50000	48	3300
COc1ccc(-c2cn3cc(C4CCN(C5CC6CCC(C5)N6CC(C)C)CC4)cc(C)c3n2)cc1OC (single isomer, unassigned) [Example 19, 2-(3,4-dimethoxyphenyl)-6-(1-(8-isobutyl-8-azabicyclo[3.2.1]octan-3-yl)piperidin-4-yl)-8-methylimidazo[1,2-a]pyridine]	> 50000	58	2400
COc1ccc(-c2cn3cc(C4CCN(C5CC6CCC(C5)N6CC5CC5)CC4)cc(C)c3n2)cc1OC (single isomer, unassigned) [Example 20, 6-(1-(8-(cyclopropylmethyl)-8-azabicyclo[3.2.1]octan-3-yl)piperidin-4-yl)-2-(3,4-dimethoxyphenyl)-8-methylimidazo[1,2-a]pyridine]	> 50000	23	1500
COc1ccc(-c2cn3cc(C4CCN(C5CC6CCC(C5)N6CC5CC5)CC4)cc(C)c3n2)cc1OC (single isomer, unassigned) [Example 21, 6-(1-(8-(cyclopropylmethyl)-8-azabicyclo[3.2.1]octan-3-yl)piperidin-4-yl)-2-(3,4-dimethoxyphenyl)-8-methylimidazo[1,2-a]pyridine]	> 50000	126	3000
COc1ccc(-c2cn3cc(C4CCN(C5CC6CCC(C5)N6C(C)C)CC4)cc(C)c3n2)cc1OC (single isomer, unassigned) [Example 22, 2-(3,4-dimethoxyphenyl)-6-(1-(8-isopropyl-8-azabicyclo[3.2.1]octan-3-yl)piperidin-4-yl)-8-methylimidazo[1,2-a]pyridine]	> 50000	30	1200
COc1ccc(-c2cn3cc(C4CCN(C5CC6CCC(C5)N6C(C)C)CC4)cc(C)c3n2)cc1OC (single isomer, unassigned) [Example 23, 2-(3,4-dimethoxyphenyl)-6-(1-(8-isopropyl-8-azabicyclo[3.2.1]octan-3-yl)piperidin-4-yl)-8-methylimidazo[1,2-a]pyridine]	> 50000	242	31000
COc1ccc(-c2cn3cc(C4CC5CCC(C4)N5C4CCN(C5CC5)CC4)cc(C)c3n2)cc1OC (single isomer, unassigned) [Example 25, 6-(8-(1-cyclopropylpiperidin-4-yl)-8-azabicyclo[3.2.1]octan-3-yl)-2-(3,4-dimethoxyphenyl)-8-methylimidazo[1,2-a]pyridine]	20000	16	3500
